Active and inactive are the calls of the source. The rule behind the calls is not given here.

Assay [1] concerns PC-12. Put plainly: Neuroprotective activity against rat PC12 cells under glucose and oxygen-deprived condition assessed as increase in cell viability at 1 uM relative to control. It counts as functional, cell-based.
Assay [2] relates to SIM-A9. Put plainly: Antiinflammatory activity in mouse microglial SIM-A9 cells assessed as reduction in LPS-stimulated nitric oxide release at 1 uM relative to control. It counts as functional, cell-based.
Assay [3] concerns SIM-A9. Description: Neuroprotective activity against LPS-induced mouse SIM-A9 cells assessed as increase in cell viability at 1 uM relative to control. It counts as functional, cell-based.
For assay [4], the system named is PC-12. Description: Neuroprotective activity against rat PC12 cells under glucose and oxygen-deprived condition assessed as increase in cell viability at 0.1 uM relative to control. It counts as functional, cell-based.
Assay [5] relates to PC-12. Description: […] activity in rat PC12 cells assessed as reduction in TCN-induced ER stress by measuring increase in cell viability at 1 uM relative to control. Format: functional, cell-based.
Assay [6] relates to PC-12. Put plainly: Neuroprotective activity against rat PC12 cells under glucose and oxygen-deprived condition assessed as fold increase in cell viability at 1 uM relative to DPZ. Format: functional.

With `COc1cc2c(cc1OC)C(=O)C(CC1CCN(Cc3ccccc3)CC1)C2` (stereo unspecified), the result in the assay on PC-12 [1], with SIM-A9 [2], in the assay on SIM-A9 [3], in the assay on PC-12 [4] and in the assay on PC-12 [5] was Active.
Take `COCc1c[nH]c2cccc(/C=C/C(=O)OC)c12`: the result in the assay on PC-12 [1], in the assay with SIM-A9 [2], in the assay with SIM-A9 [3] and with PC-12 [5] was Active. Moreover, in the assay on PC-12 [6], the “fold change (FC)” value amounted to 10.
Take `CN(C)Cc1c[nH]c2cccc(/C=C/C(N)=O)c12`: the result in the assay with PC-12 [1], in the assay on SIM-A9 [2], in the assay with SIM-A9 [3] and in the assay on PC-12 [5] was Active. Also, the “fold change (FC)” value in the assay with PC-12 [6] turned out to be 10.
Turning to `COC(=O)/C=C/c1cccc2[nH]cc(CN(C)C)c12`, the result in the assay on PC-12 [1], with SIM-A9 [2], with SIM-A9 [3] and in the assay with PC-12 [5] was Active. In the assay on PC-12 [6], the “fold change (FC)” value was 10.
As to `O=[N+]([O-])C(Cc1c[nH]c2cccc(Br)c12)Cc1c[nH]c2cccc(Br)c12`, the result with PC-12 [1] was Active. Further, the outcome in the assay with SIM-A9 [3] and in the assay with PC-12 [5] was inactive. The “fold change (FC)” value in the assay on PC-12 [6] stood at 10.
Turning to `COC(=O)C[C@H]1c2cccc3[nH]cc(c23)C[C@@H]1[N+](=O)[O-]`, the outcome in the assay on PC-12 [1] and in the assay on PC-12 [5] was Active. The “fold change (FC)” value in the assay on PC-12 [6] is 10.
Take `CN(C)Cc1c[nH]c2cccc(Br)c12`: the outcome in the assay on PC-12 [1], with SIM-A9 [2] and in the assay on PC-12 [5] was Active. In the assay with PC-12 [6], the “fold change (FC)” value is 10.

Source of the values: ChEMBL document CHEMBL4819150, “The structural simplification of lysergic acid as a natural lead for synthesizing novel anti-Alzheimer agents” (2021).
